Patent publication US8354400B2, “Benzoxazole compounds and methods of use” (Eisai R&D Co., Ltd., priority 2008, dated 2013)
pIC50: −log10 of the molar value.

Assays:
Assay type in all cases: cell-based
[1] = test system: mouse spleen IL-6 production in response to Oligo CpG 1668; experiment: Splenocyte CpG 1668 assay (IL-6 ELISA); conditions: mouse splenocytes, Oligo CpG 1668, 72 hrs
Method: (2) Splenocyte CpG 1668 Assay: Some of the compounds tested in the primary assay were also assayed for suppression of mouse spleen IL-6 production in response to stimulation with Oligo CpG 1668, a synthetic phosphorothioate oligonucleotide (Krieg et al. Nature. 374:546-9 (1995)), with nucleotide sequence [NT] (SEQ ID NO:2). Each compound was added to dissociated splenocytes before addition of stimulatory oligonucleotide. Cells were stimulated in culture for 72 hrs and the supernatant was removed for ELISA analysis of IL-6 level. Here the IC50 is defined as the concentration of compound that suppresses cytokine production to 50% of that observed in the absence of compound, i.e., full stimulation.

[2] = target: T1, human TLR9 (Homo sapiens, UniProt Q9NR96); experiment: Primary assay: HEK/TLR9 activation (NF-kB luciferase reporter, Oligo CpG 2006 stimulation); conditions: HEK293 transfected with human TLR9 and NF-kB luciferase; compound 30 min before Oligo CpG 2006; overnight; read-out: HEK/TLR9 IC50
T1 construct: expressed in transfected cells; host or cells: HEK293 (ATCC No. CRP-1573 [sic])
T1 sequence (Q9NR96 26-1032): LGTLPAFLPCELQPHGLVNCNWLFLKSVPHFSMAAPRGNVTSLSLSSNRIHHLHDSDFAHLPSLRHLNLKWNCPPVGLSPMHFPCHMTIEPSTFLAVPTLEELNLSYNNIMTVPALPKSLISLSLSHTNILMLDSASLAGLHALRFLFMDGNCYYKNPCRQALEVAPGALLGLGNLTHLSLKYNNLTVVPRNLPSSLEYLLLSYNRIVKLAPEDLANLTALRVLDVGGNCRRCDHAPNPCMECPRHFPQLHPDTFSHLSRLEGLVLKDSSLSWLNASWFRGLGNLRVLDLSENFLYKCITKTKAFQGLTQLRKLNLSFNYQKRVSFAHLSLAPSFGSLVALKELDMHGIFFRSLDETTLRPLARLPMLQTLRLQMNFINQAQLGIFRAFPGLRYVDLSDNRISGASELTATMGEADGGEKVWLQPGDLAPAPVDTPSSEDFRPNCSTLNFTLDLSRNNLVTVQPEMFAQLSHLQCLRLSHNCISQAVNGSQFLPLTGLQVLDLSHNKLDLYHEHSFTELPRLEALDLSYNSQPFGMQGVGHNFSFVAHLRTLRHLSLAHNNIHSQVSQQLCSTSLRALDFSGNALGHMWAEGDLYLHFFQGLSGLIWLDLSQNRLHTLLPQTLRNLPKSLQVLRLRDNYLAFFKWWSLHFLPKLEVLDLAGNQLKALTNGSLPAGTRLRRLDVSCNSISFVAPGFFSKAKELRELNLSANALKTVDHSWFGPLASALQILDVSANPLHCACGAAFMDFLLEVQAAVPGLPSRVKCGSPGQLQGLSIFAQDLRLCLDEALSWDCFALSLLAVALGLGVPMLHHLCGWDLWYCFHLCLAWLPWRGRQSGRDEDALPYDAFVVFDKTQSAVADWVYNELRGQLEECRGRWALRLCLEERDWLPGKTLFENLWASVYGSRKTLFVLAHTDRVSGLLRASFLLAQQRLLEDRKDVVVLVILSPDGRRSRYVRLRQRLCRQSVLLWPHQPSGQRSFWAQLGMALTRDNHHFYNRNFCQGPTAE
Description: A. Primary Assay. The primary assay involved transfecting human embryonic kidney epithelial (HEK) cells with TLR9. More specifically, HEK293 […] cells (ATCC No. CRP-1573, American Type Culture Collection, Manassas, Va.) were transfected with pcDNA3.1D/V5-His-TOPO® plasmid (Invitrogen, Carlsbad, Calif.) encoding human TLR9 (directly inserted as a Tag polymerase-amplified PCR product) and firefly luciferase under the control of three NF-kB binding sites contained in the E-selectin-1 promoter, which was cloned into a pGL3-Enhancer Vector (Promega Corp, Madison, Wis.). Each compound was added to cells 30 min. before stimulation with Oligo CpG 2006, a synthetic phosphorothioate oligonucleotide (Hartmann et al., J Immunol. 164:1617-24 (2000)), with nucleotide sequence 5′-TCGTCGTTTTGTCGTTTTGTCGTT-3′ (SEQ ID NO:1). The cells were incubated overnight at 37° C. The luciferase substrate Steady-Glo® (Promega) was added to the wells, and luminescence was measured to determine the extent of TLR9-driven gene activation. The luminescence data was used to calculate an IC50 for each sample. The IC50 is defined as the concentration of compound that suppresses the luminescence to 50% of that observed in the absence of compound, in other words, with full stimulation.

[3] = test system: dissociated mouse splenocytes; experiment: Spleen CellTiter-Glo viability assay; conditions: Splenocyte, 72 hours, viability (ATP)
Method: (3) Spleen CT Glo Assay: To determine if compounds had adverse effects on living cells, dissociated mouse splenocytes were incubated with some of the compounds for 72 hours. At the end of the incubation Celliter-Glo™ reagent (Promega Corporation, Madison, Wis.) was added and luminescence was read per manufacturer's instructions. This reagent measures ATP as an indication of cell metabolism. Dead cells will not produce signal. IC50 is defined as the concentration of compound that suppresses viability to 50% of that observed in the absence of compound. The few compounds that measurably affected viability did so at concentrations far above those that affected cytokine release in response to TLR9 stimulation.

SMILES | pIC50 [1] | pIC50 [2] | pIC50 [3]
CCN(CC)CCNCCCOc1ccc(-c2nc3ccc(OCCCNCCN(CC)CC)cc3o2)cc1 [Compound 12] | 8.40 | 8.24 | < 5.00
c1cc(-c2nc3ccc(OCCCN4CCCC4)cc3o2)ccc1OCCCN1CCCC1 [Compound 23] | 7.74 | 7.95 | < 5.00
CN(C)CCCN(C)CCCOc1ccc(-c2nc3ccc(OCCCN(C)CCCN(C)C)cc3o2)cc1 [Compound 27] | 8.40 | 8.47 | 5.05
CN(C)[C@@H]1CCN(CCCOc2ccc(-c3nc4ccc(OCCCN5CC[C@@H](N(C)C)C5)cc4o3)cc2)C1 [Compound 16] | 8.10 | 8.26 | < 5.00
CN1CCN(c2ccc(CNCCCOc3ccc(-c4nc5ccc(OCCCNCc6ccc(N7CCN(C)CC7)cc6)cc5o4)cc3)cc2)CC1 [Compound 11] | 8.70 | 8.32 | 5.00
c1cc(-c2nc3ccc(OCCCN4CCCCC4)cc3o2)ccc1OCCCN1CCCCC1 [Compound 30] | 7.60 | 7.92 | < 5.00

More lines, in order of rising pIC50 [1], values ahead:

pIC50 [1] | pIC50 [2] | SMILES | pIC50 [3]
7.32 | 7.81 | CN(C)CCCOc1ccc(-c2nc3ccc(OCCCN(C)C)cc3o2)cc1 [Compound 2] | < 5.00
8.00 | 8.06 | CN(C)CCN(C)CCCOc1ccc(-c2nc3ccc(OCCCN(C)CCN(C)C)cc3o2)cc1 [Compound 22] | 5.15
8.22 | 8.14 | CCN(CC)CCN(C)CCCOc1ccc(-c2nc3ccc(OCCCN(C)CCN(CC)CC)cc3o2)cc1 [Compound 31] | < 5.00
8.22 | 7.90 | c1cc(-c2nc3ccc(OCCCN4CCC(N5CCCC5)CC4)cc3o2)ccc1OCCCN1CCC(N2CCCC2)CC1 [Compound 20] | < 5.00
8.40 | 8.25 | CN1CCCN(CCCOc2ccc(-c3nc4ccc(OCCCN5CCCN(C)CC5)cc4o3)cc2)CC1 [Compound 14] | < 5.00
8.52 | 8.15 | c1cc(CN2CCOCC2)ccc1CNCCCOc1ccc(-c2nc3ccc(OCCCNCc4ccc(CN5CCOCC5)cc4)cc3o2)cc1 [Compound 13] | 5.15
